The record followed here is patent US20240218022A1, “ANTI-VISTA MACROCYCLIC PEPTIDES AND COMPOSITIONS” (BRISTOL-MYERS SQUIBB COMPANY, priority 2022, published 2024).

Molecules are shown by their SMILES. Positions of bridges follow the written chain, without caps; N, C: chain ends. Non-standard residues stand in square brackets, D forms with d. Residues, ends and D or L forms follow the SMILES beside them. ξ: configuration not given here. NMeIle(3ξ) = CCC(C)[C@H](NC)C(=O)O; NMeD = CN[C@@H](CC(=O)O)C(=O)O; NMeL = CN[C@@H](CC(C)C)C(=O)O; Ahp(2) = CCCCC[C@H](N)C(=O)O; NMeNle = CCCC[C@H](NC)C(=O)O; Tle = CC(C)(C)[C@H](N)C(=O)O; NHexGly = CCCCCCNCC(=O)O; Nle = CCCC[C@H](N)C(=O)O; Orn = NCCC[C@H](N)C(=O)O

This assay deals with T1, mouse VISTA (mVISTA) (Mus musculus, UniProt Q9D659).
T1 construct: expressed in transfected cells; host or cells: Human embryonic kidney 293T cells
T1 sequence (Q9D659 33-308): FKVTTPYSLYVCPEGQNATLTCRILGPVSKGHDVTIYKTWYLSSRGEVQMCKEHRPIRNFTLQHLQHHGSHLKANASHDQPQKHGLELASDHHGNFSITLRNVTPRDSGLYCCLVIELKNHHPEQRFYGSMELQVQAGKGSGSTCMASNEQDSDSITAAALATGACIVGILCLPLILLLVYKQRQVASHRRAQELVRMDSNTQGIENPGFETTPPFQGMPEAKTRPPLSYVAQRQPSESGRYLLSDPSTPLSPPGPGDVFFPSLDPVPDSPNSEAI
Nature of the assay: Cell-Based Binding High-Content Assay For mVISTA (HC CBA mVISTA). To be noted: read-out: HC CBA mVISTA IC50. The gist of the method:
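mVISTA-293T, 4,000 cells/well; cpd ± washout step; biotin-peptide 2 nM final, 30 min RT; SA-Alexa 647 30 min; formaldehyde/Hoechst fix; HCS imaging; 4PL IC50.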

What is called IC50 is the midpoint of a concentration-inhibition curve. As to `CCCCCCN1CC(=O)N[C@@H](Cc2ccc(O)cc2)C(=O)N[C@@H](CCCC)C(=O)N[C@@H](CC(N)=O)C(=O)N[C@@H](CCCNC(=N)N)C(=O)N(C)[C@@H](C(C)CC)C(=O)N[C@@H](CCCCC)C(=O)N2CCC[C@H]2C(=O)N[C@@H](C(C)C)C(=O)N[C@@H](CC(=O)O)C(=O)N[C@H](C(=O)NCC(=O)O)CSCC(=O)N[C@@H](Cc2ccccc2)C(=O)N[C@@H](Cc2c[nH]c3ccccc23)C(=O)N[C@@H](CC(=O)O)C1=O` (some centres unmarked) [Example 1367] ({CH2CO}-FWD[NHexGly]Y[Nle]NR[NMeIle(3ξ)][Ahp(2)]PVDCG-OH; thioether N-14), the half-maximal inhibitory concentration (IC50) turned out to be 11.1 nM.
Regarding `CCCCCCN1CC(=O)N[C@@H](Cc2ccc(O)cc2)C(=O)N[C@@H](CCCC)C(=O)N[C@@H](CC(N)=O)C(=O)N[C@@H](CCCNC(=N)N)C(=O)N(C)[C@@H](CC(=O)O)C(=O)N[C@@H](CCCCC)C(=O)N2CCC[C@H]2C(=O)N[C@@H](C(C)C)C(=O)N[C@@H](CC(=O)O)C(=O)N[C@H](C(=O)NCC(=O)O)CSCC(=O)N[C@@H](Cc2ccccc2)C(=O)N[C@@H](Cc2c[nH]c3ccccc23)C(=O)N[C@@H](CC(=O)O)C1=O` [Example 1368] ({CH2CO}-FWD[NHexGly]Y[Nle]NR[NMeD][Ahp(2)]PVDCG-OH; thioether N-14), the half-inhibitory concentration (IC50) came to 37 nM.
With `CCCCCCN1CC(=O)N[C@@H](Cc2ccc(O)cc2)C(=O)N[C@@H](CCCC)C(=O)N[C@@H](CC(N)=O)C(=O)N[C@@H](CCCNC(=N)N)C(=O)N(C)[C@@H](CC(C)C)C(=O)N[C@@H](CCCCC)C(=O)N2CCC[C@H]2C(=O)N[C@@H](C(C)C)C(=O)N[C@@H](CC(=O)O)C(=O)N[C@H](C(=O)NCC(=O)O)CSCC(=O)N[C@@H](Cc2ccccc2)C(=O)N[C@@H](Cc2c[nH]c3ccccc23)C(=O)N[C@@H](CC(=O)O)C1=O` [Example 1369] ({CH2CO}-FWD[NHexGly]Y[Nle]NR[NMeL][Ahp(2)]PVDCG-OH; thioether N-14) the figure was 3.5 nM.
With `CCCCCCN1CC(=O)N[C@@H](Cc2ccc(O)cc2)C(=O)N[C@@H](CCCC)C(=O)N[C@@H](CC(N)=O)C(=O)N[C@@H](CCCNC(=N)N)C(=O)N(C)[C@@H](CC(C)C)C(=O)N[C@@H](CCCCC)C(=O)N2CCC[C@H]2C(=O)N[C@@H](C(C)C)C(=O)N[C@@H](CC(=O)O)C(=O)N[C@H](C(=O)N[C@@H](CO)C(=O)O)CSCC(=O)N[C@@H](Cc2ccccc2)C(=O)N[C@@H](Cc2c[nH]c3ccccc23)C(=O)N[C@@H](CC(=O)O)C1=O` [Example 1370] ({CH2CO}-FWD[NHexGly]Y[Nle]NR[NMeL][Ahp(2)]PVDCS-OH; thioether N-14) the figure was 18.7 nM; with `CCCCCCN1CC(=O)N[C@@H](Cc2ccc(O)cc2)C(=O)N[C@@H](CCCC)C(=O)N[C@@H](CC(N)=O)C(=O)N[C@@H](CCCNC(=N)N)C(=O)N(C)[C@@H](CCCC)C(=O)N[C@@H](CCCCC)C(=O)N2CCC[C@H]2C(=O)N[C@@H](C(C)(C)C)C(=O)N[C@@H](CC(=O)O)C(=O)N[C@H](C(=O)N[C@@H](CC(=O)O)C(N)=O)CSCC(=O)N[C@@H](Cc2ccccc2)C(=O)N[C@@H](Cc2c[nH]c3ccccc23)C(=O)N[C@@H](CC(=O)O)C1=O` [Example 1371] ({CH2CO}-FWD[NHexGly]Y[Nle]NR[NMeNle][Ahp(2)]P[Tle]DCD-NH2; thioether N-14), 36.6 nM.
The figure for `CCCCCCN1CC(=O)N[C@@H](Cc2ccc(O)cc2)C(=O)N[C@@H](CCCC)C(=O)N[C@@H](CC(=O)O)C(=O)N[C@@H](CCCN)C(=O)N(C)[C@@H](CCCC)C(=O)N[C@@H](CCCCC)C(=O)N2CCC[C@H]2C(=O)N[C@@H](C(C)(C)C)C(=O)N[C@@H](CC(=O)O)C(=O)N[C@H](C(=O)N[C@@H](CC(=O)O)C(N)=O)CSCC(=O)N[C@@H](Cc2ccccc2)C(=O)N[C@@H](Cc2c[nH]c3ccccc23)C(=O)N[C@@H](CC(=O)O)C1=O` [Example 1372] ({CH2CO}-FWD[NHexGly]Y[Nle]D[Orn][NMeNle][Ahp(2)]P[Tle]DCD-NH2; thioether N-14) is 16.4 nM; for `CCCCCCN1CC(=O)N[C@@H](Cc2ccc(O)cc2)C(=O)N[C@@H](CCCC)C(=O)N[C@@H](CC(N)=O)C(=O)N[C@@H](CCCN)C(=O)N(C)[C@@H](CCCC)C(=O)N[C@@H](CCCCC)C(=O)N2CCC[C@H]2C(=O)N[C@@H](C(C)(C)C)C(=O)N[C@@H](CC(=O)O)C(=O)N[C@H](C(=O)N[C@@H](CC(=O)O)C(N)=O)CSCC(=O)N[C@@H](Cc2ccccc2)C(=O)N[C@@H](Cc2c[nH]c3ccccc23)C(=O)N[C@@H](CC(=O)O)C1=O` [Example 1373] ({CH2CO}-FWD[NHexGly]Y[Nle]N[Orn][NMeNle][Ahp(2)]P[Tle]DCD-NH2; thioether N-14) it is 14.8 nM; for `CCCCCCN1CC(=O)N[C@@H](Cc2ccc(O)cc2)C(=O)N[C@@H](CCCC)C(=O)N[C@@H](CC(N)=O)C(=O)N[C@@H](CCCN)C(=O)N(C)[C@@H](CCCC)C(=O)N[C@@H](CCCCC)C(=O)N2CCC[C@H]2C(=O)N[C@@H](C(C)(C)C)C(=O)N[C@@H](CO)C(=O)N[C@H](C(=O)N[C@@H](CC(=O)O)C(N)=O)CSCC(=O)N[C@@H](Cc2ccccc2)C(=O)N[C@@H](Cc2c[nH]c3ccccc23)C(=O)N[C@@H](CC(=O)O)C1=O` [Example 1374] ({CH2CO}-FWD[NHexGly]Y[Nle]N[Orn][NMeNle][Ahp(2)]P[Tle]SCD-NH2; thioether N-14) it is 24.9 nM.
With `CCCCCCN1CC(=O)N[C@@H](Cc2ccc(O)cc2)C(=O)N[C@@H](CCCC)C(=O)N[C@@H](CC(=O)O)C(=O)N[C@@H](CCCNC(=N)N)C(=O)N(C)[C@@H](CCCC)C(=O)N[C@@H](CCCCC)C(=O)N2CCC[C@H]2C(=O)N[C@@H](C(C)(C)C)C(=O)N[C@@H](CO)C(=O)N[C@H](C(=O)N[C@@H](CC(=O)O)C(N)=O)CSCC(=O)N[C@@H](Cc2ccccc2)C(=O)N[C@@H](Cc2c[nH]c3ccccc23)C(=O)N[C@@H](CC(=O)O)C1=O` [Example 1375] ({CH2CO}-FWD[NHexGly]Y[Nle]DR[NMeNle][Ahp(2)]P[Tle]SCD-NH2; thioether N-14), the half-maximal inhibitory concentration (IC50) was 42.5 nM.
With `CCCCCCN1CC(=O)N[C@@H](Cc2ccc(O)cc2)C(=O)N[C@@H](CCCC)C(=O)N[C@@H](CC(=O)O)C(=O)N[C@@H](CCCN)C(=O)N(C)[C@@H](CCCC)C(=O)N[C@@H](CCCCC)C(=O)N2CCC[C@H]2C(=O)N[C@@H](C(C)(C)C)C(=O)N[C@@H](CO)C(=O)N[C@H](C(=O)N[C@@H](CC(=O)O)C(N)=O)CSCC(=O)N[C@@H](Cc2ccccc2)C(=O)N[C@@H](Cc2c[nH]c3ccccc23)C(=O)N[C@@H](CC(=O)O)C1=O` [Example 1376] ({CH2CO}-FWD[NHexGly]Y[Nle]D[Orn][NMeNle][Ahp(2)]P[Tle]SCD-NH2; thioether N-14) the figure was 36.6 nM.
The figure for `CCCCCCN1CC(=O)N[C@@H](Cc2ccc(O)cc2)C(=O)N[C@@H](CCCC)C(=O)N[C@@H](CC(=O)O)C(=O)N[C@@H](CCCNC(=N)N)C(=O)N(C)[C@@H](CCCC)C(=O)N[C@@H](CCCCC)C(=O)N2CCC[C@H]2C(=O)N[C@@H](C(C)(C)C)C(=O)N[C@@H](CC(=O)O)C(=O)N[C@H](C(=O)N[C@@H](CC(=O)O)C(N)=O)CSCC(=O)N[C@@H](Cc2ccccc2)C(=O)N[C@@H](Cc2c[nH]c3ccccc23)C(=O)N[C@@H](CC(=O)O)C1=O` [Example 1377] ({CH2CO}-FWD[NHexGly]Y[Nle]DR[NMeNle][Ahp(2)]P[Tle]DCD-NH2; thioether N-14) is 22.2 nM.
